How the values were obtained:
[1] = tested on: Sclerotinia sclerotiorum; assay: Antifungal activity against Sclerotinia sclerotiorum assessed as inhibition of germination in volatile phase at 51 umol/l measured at 20 degC after 5 days; type: functional; conditions: 120 h
[2] = tested on: Sclerotinia sclerotiorum; assay: Fungistatic activity in Sclerotinia sclerotiorum assessed as inhibition of carpogenic germination in volatile phase at 102 umol/l measured at 20 degC after 5 days relative to control; type: functional; conditions: 120 h
[3] = tested on: Sclerotinia sclerotiorum; assay: In vivo antifungal Sclerotinia sclerotiorum in Pepper (Capsicum annuum L. cv. Sera Demre) assessed as inhibition of mycelial growth in volatile phase at 204 umol/L measured after 10 to 14 weeks; type: functional
[4] = tested on: Sclerotinia sclerotiorum; assay: Antifungal activity against Sclerotinia sclerotiorum assessed as inhibition of mycelial growth in volatile phase at 1020 umol/l measured at 20 degC after 5 days; type: functional; conditions: 120 h, read-out: GI
[5] = tested on: Sclerotinia sclerotiorum; assay: Fungistatic activity in Sclerotinia sclerotiorum assessed as inhibition of mycelial growth in contact phase measured at 20 degC after 5 days; type: functional, organism-based; conditions: 120 h
[6] = tested on: Sclerotinia sclerotiorum; assay: Antifungal activity against Sclerotinia sclerotiorum assessed as inhibition of germination in volatile phase at 102 umol/l measured at 20 degC after 5 days; type: functional; conditions: 120 h
[7] = tested on: Sclerotinia sclerotiorum; assay: Fungistatic activity in Sclerotinia sclerotiorum assessed as inhibition of carpogenic germination in volatile phase at 1020 umol/l measured at 20 degC after 5 days relative to control; type: functional; conditions: 120 h
[8] = tested on: Sclerotinia sclerotiorum; assay: Antifungal activity against Sclerotinia sclerotiorum assessed as inhibition of mycelial growth in contact phase at 3065 umol/l measured at 20 degC after 5 days; type: functional; conditions: 120 h, read-out: GI
[9] = tested on: Sclerotinia sclerotiorum; assay: Antifungal activity against Sclerotinia sclerotiorum assessed as inhibition of germination in volatile phase at 1022 umol/l measured at 20 degC after 5 days; type: functional; conditions: 120 h
[10] = tested on: Sclerotinia sclerotiorum; assay: Antifungal activity against Sclerotinia sclerotiorum assessed as inhibition of mycelial growth in volatile phase at 714 umol/l measured at 20 degC after 5 days; type: functional; conditions: 120 h, read-out: GI
[11] = tested on: Sclerotinia sclerotiorum; assay: Fungistatic activity in Sclerotinia sclerotiorum assessed as inhibition of mycelial growth in contact phase at 3065 umol/l measured at 20 degC after 5 days relative to control; type: functional; conditions: 120 h, read-out: GI
[12] = tested on: Sclerotinia sclerotiorum; assay: Antifungal activity against Sclerotinia sclerotiorum assessed as inhibition of germination in volatile phase at 307 umol/l measured at 20 degC after 5 days; type: functional; conditions: 120 h
[13] = tested on: Sclerotinia sclerotiorum; assay: In vivo antifungal Sclerotinia sclerotiorum in Pepper (Capsicum annuum L. cv. Sera Demre) assessed as inhibition of mycelial growth in volatile phase at 102 umol/L measured after 10 to 14 weeks; type: functional
[14] = tested on: Sclerotinia sclerotiorum; assay: Fungitoxic activity in Sclerotinia sclerotiorum assessed as inhibition of mycelial growth in volatile phase at 1020 umol/l measured at 20 degC after 5 days relative to control; type: functional; conditions: 120 h, read-out: GI
[15] = tested on: Sclerotinia sclerotiorum; assay: Antifungal activity against Sclerotinia sclerotiorum assessed as inhibition of mycelial growth in contact phase at 1022 umol/l measured at 20 degC after 5 days; type: functional; conditions: 120 h, read-out: GI
[16] = tested on: Sclerotinia sclerotiorum; assay: Antifungal activity against Sclerotinia sclerotiorum assessed as inhibition of mycelial growth in volatile phase at 510 umol/l measured at 20 degC after 5 days; type: functional; conditions: 120 h, read-out: GI
[17] = tested on: Sclerotinia sclerotiorum; assay: Fungistatic activity in Sclerotinia sclerotiorum assessed as inhibition of mycelial growth in volatile phase at 714 umol/l measured at 20 degC after 5 days relative to control; type: functional; conditions: 120 h, read-out: GI
[18] = tested on: Sclerotinia sclerotiorum; assay: Fungistatic activity in Sclerotinia sclerotiorum assessed as inhibition of carpogenic germination in volatile phase at 51 umol/l measured at 20 degC after 5 days relative to control; type: functional; conditions: 120 h
[19] = tested on: Sclerotinia sclerotiorum; assay: Fungistatic activity in Sclerotinia sclerotiorum assessed as inhibition of mycelial growth in volatile phase measured at 20 degC after 5 days; type: functional, organism-based; conditions: 120 h
[20] = tested on: Sclerotinia sclerotiorum; assay: Antifungal activity against Sclerotinia sclerotiorum assessed as inhibition of mycelial growth in contact phase at 715 umol/l measured at 20 degC after 5 days; type: functional; conditions: 120 h, read-out: GI
[21] = tested on: Sclerotinia sclerotiorum; assay: Antifungal activity against Sclerotinia sclerotiorum assessed as inhibition of mycelial growth in contact phase at 2043 umol/l measured at 20 degC after 5 days; type: functional; conditions: 120 h, read-out: GI
[22] = tested on: Sclerotinia sclerotiorum; assay: Antifungal activity against Sclerotinia sclerotiorum assessed as inhibition of mycelial growth in volatile phase at 51 umol/l measured at 20 degC after 5 days; type: functional; conditions: 120 h, read-out: GI
[23] = tested on: Sclerotinia sclerotiorum; assay: Antifungal activity against Sclerotinia sclerotiorum assessed as inhibition of mycelial growth in contact phase at 920 umol/l measured at 20 degC after 5 days; type: functional; conditions: 120 h, read-out: GI
[24] = tested on: Sclerotinia sclerotiorum; assay: Antifungal activity against Sclerotinia sclerotiorum assessed as inhibition of mycelial growth in volatile phase at 102 umol/l measured at 20 degC after 5 days; type: functional; conditions: 120 h, read-out: GI
[25] = tested on: Sclerotinia sclerotiorum; assay: Fungistatic activity in Sclerotinia sclerotiorum assessed as inhibition of carpogenic germination in volatile phase at 510 umol/l measured at 20 degC after 5 days relative to control; type: functional; conditions: 120 h
[26] = tested on: Sclerotinia sclerotiorum; assay: Antifungal activity against Sclerotinia sclerotiorum assessed as inhibition of germination in volatile phase at 511 umol/l measured at 20 degC after 5 days; type: functional; conditions: 120 h

C=CCN=C=S [ALLYL ISOTHIOCYANATE] showed an inhibition at 51 µM [1] of 0%, an inhibition at 102 µM [2] of 67.5% and an inhibition in vivo at 204 µM [3] of 81.7%. It also gave an inhibition of growth at 1020 µM [4] of 100%, an EC50 [5] of 1060 µM and an inhibition at 102 µM [6] of 0%. It also gave an inhibition at 1020 µM [7] of 75%, an inhibition of growth at 3065 µM [8] of 100% and an inhibition at 1022 µM [9] of 0%. The inhibition of growth at 714 µM [10] was 100%, the inhibition of growth at 3065 µM [11] was 100% and the inhibition at 307 µM [12] was 0%. For the same compound, the inhibition in vivo at 102 µM [13] was 76.7%, the inhibition of growth at 1020 µM [14] was 100% and the inhibition of growth at 1022 µM [15] was 45.5%. It also gave an inhibition of growth at 510 µM [16] of 87%, an inhibition of growth at 714 µM [17] of 100% and an inhibition at 51 µM [18] of 60%. It also gave an EC50 [19] of 71.5 µM, an inhibition of growth at 715 µM [20] of 32% and an inhibition of growth at 2043 µM [21] of 77%. The inhibition of growth at 51 µM [22] was 45.7%, the inhibition of growth at 920 µM [23] was 37.7% and the inhibition of growth at 102 µM [24] was 50.7%. For the same compound, the inhibition at 510 µM [25] was 67.5% and the inhibition at 511 µM [26] was 0%.
